Tested on: rat venous stasis model, LPS-induced ARDS
Assay: Rat venous stasis (Wessler) model after LPS-induced lung injury (ARDS induced thrombosis)
Assay type: in vivo
Conditions: 250 mg/kg oral gavage 3, 24, 48, 72 h post LPS instillation; Sprague-Dawley rats; 30 min stasis
Excerpt: This study assessed the efficacy of ABC294640 to reduce the incidence of adverse thromboembolic events in situ in acute respiratory distress syndrome (ARDS) conditions using a rat venous stasis model. This assay is designed to measure thrombotic risks following LPS-induced lung injury. LPS-induced lung injury is one of the most commonly used rodent models for ARDS and was described to mimic the neutrophilic inflammatory response observed in ARDS patients. The mechanism of LPS-induced ARDS is based on damage to endothelial cells and a systemic inflammatory response. […]
Sprague-Dawley rats (male) weighing between 275 and 400 g were used for this study. […] The body weight was recorded before the instillation and 24, 48 and 72 hours post-instillation.
In this study, ARDS was induced by intratracheal instillation of LPS. […] The segment was then excised and its content scored. […]
• 1. Prior LPS or saline instillation, the functional respiratory parameters of all rat was assessed by whole-body plethysmography and SpO2 was evaluated on conscious rat with a collar probe pulse oximeter. […] The respiratory rate, the Penh and the inspiratory/expiratory time measurements was analyzed. • 2. […]
• 5. Rats were evaluated periodically to ensure animal well-being (general behavior and daily body weight). • 6. […] SpO2 and whole-body plethysmography were also evaluated 24, 48 and 72 hours post-instillation. • 8. […]

Q: With `O=C(NCc1ccncc1)C12CC3CC(C1)CC(c1ccc(Cl)cc1)(C3)C2` [ABC294640, 3-(4-chlorophenyl)-adamantane-1-carboxylic acid (pyridin-4-ylmethyl)amide] as the compound, how does the “thrombosis (blood clot length, weight and total thrombus score)” value read?
A: reduction of thrombosis
